According to patent US20060240986A1, “Herbicidal method” (Sumitomo Chemical Company, Limited, priority 2005, published 2006):

Assays:
[1] = tested on: hemp sesbania (Seshania exaltata); assay: Test Example 1, peanut field: herbicidal activity; type: in vivo; settings: sprayed over plants grown 12 days, examined 7 days after application
Description: (§1) Plastic pots each having a diameter of 18 cm and depth of 14 cm were filled with upland soil, and then seeded with yellow nutsedge (Cyperus esculentus), hemp sesbania (Seshania exaltata) and sicklepod (Cassia obtusifolia). In a greenhouse, they were grown for 12 days. Flumioxazin water dispersible granules (commercial name: Valor SX, produced by Valent U.S.A.), Imazosulfuron emulsifiable concentrate (produced by mixing well 5 parts of Imazosulfuron, 65 parts of cyclohexanone, 13 parts of Sorpol 2680 (Toho Chemical's product) and 17 parts of dimethylformamide) and a mixture of the Flumioxazin water dispersible granules and the Imazosulfuron emulsifiable concentrate were independently diluted in their designated amounts with water. Each dilution was uniformly sprayed over the test plants with a small sprayer. […] Further, the pots were seeded with peanut (Arachis hypogea) 7 days after the application, and the phytotoxicity against the crop was examined 10 days after the seeding.

[2] = tested on: sicklepod (Cassia obtusifolia); assay: Test Example 1, peanut field: herbicidal activity; type: in vivo; settings: sprayed over plants grown 12 days, examined 7 days after application
Description: as §1

[3] = tested on: yellow nutsedge (Cyperus esculentus); assay: Test Example 1, peanut field: herbicidal activity; type: in vivo; settings: sprayed over plants grown 12 days, examined 7 days after application
Description: as §1

peanut (Arachis hypogea) = assay: Test Example 1, peanut field: phytotoxicity against crop; type: in vivo; settings: peanut seeded 7 days after application, examined 10 days after seeding
Description: as §1

[4] = tested on: barnyardgrass (Echinochloa crus-gall); assay: Test Example 2, vegetable field: herbicidal activity; type: in vivo, Echinochloa crus-galli; settings: granules to soil surface the day after seeding, grown 29 days
Source text: (§2) Plastic pots each having a diameter of 18 cm and depth of 14 cm were filled with upland soil, and then seeded with barnyardgrass (Echinochloa crus-gall) and onion (Allium cepa).

onion (Allium cepa) = assay: Test Example 2, vegetable field: phytotoxicity; type: in vivo; settings: 20 g/ha active ingredient; granules to soil surface the day after seeding; grown 29 days
Source text: as §2

[5] = tested on: giant foxtail (Setaria faberi); assay: Test Example 5, vegetable field: herbicidal activity; type: in vivo; settings: granules to soil surface the day after seeding, 17 days in greenhouse
Source text: (§3) Plastic pots each having a diameter of 18 cm and depth of 14 cm were filled with upland soil, seedlings of strawberry (Fragaria ananassa) was transplanted and then seeded with giant foxtail (Setaria faberi).

[6] = tested on: strawberry (Fragaria ananassa); assay: Test Example 5, vegetable field: phytotoxicity; type: in vivo; settings: 40 g/ha active ingredient; transplanted seedlings; granules to soil surface the next day; 17 days in greenhouse
Source text: as §3

kudzu (Pueraria lobata) = assay: Test Example 12, non-cultivated land: herbicidal activity; type: in vivo; settings: sprayed to soil surface the day after seeding, 14 days in greenhouse
Source text: Plastic pots each having a diameter of 9 cm and depth of 7 cm were filled with upland soil, and then seeded with kudzu (Pueraria lobata).

Compound | Herbicidal activity Se ([1]; 30 g/ha active ingredient) | Herbicidal activity Se ([1]; 60 g/ha active ingredient) | Herbicidal activity Co ([2]; 30 g/ha active ingredient) | Herbicidal activity Co ([2]; 60 g/ha active ingredient) | Herbicidal activity Ce ([3]; 30 g/ha active ingredient) | Herbicidal activity Ce ([3]; 60 g/ha active ingredient) | Phytotoxicity against crop Peanut (peanut (Arachis hypogea); 30 g/ha active ingredient) | Phytotoxicity against crop Peanut (peanut (Arachis hypogea); 60 g/ha active ingredient) | Herbicidal activity Barnyardgrass ([4]; 20 g/ha active ingredient) | Phtotoxicity Onion (onion (Allium cepa)) | Herbicidal activity giant foxtail ([5]; 40 g/ha active ingredient) | Phtotoxicity strawberry [6] | Herbicidal activity kudzu (kudzu (Pueraria lobata); 100 g/ha active ingredient) | Herbicidal activity Se ([1]; 120 g/ha active ingredient) | Herbicidal activity Co ([2]; 120 g/ha active ingredient) | Herbicidal activity Ce ([3]; 120 g/ha active ingredient) | Herbicidal activity Barnyardgrass ([4]; 50 g/ha active ingredient) | Herbicidal activity giant foxtail ([5]; 50 g/ha active ingredient) | Herbicidal activity giant foxtail ([5]; 250 g/ha active ingredient) | Herbicidal activity kudzu (kudzu (Pueraria lobata); 500 g/ha active ingredient)
C#CCN1C(=O)COc2cc(F)c(N3C(=O)C4=C(CCCC4)C3=O)cc21 [Flumioxazin, N-(7-fluoro-3,4-dihydro-3-oxo-4-prop-2-ynyl-2H-1,4-benzoxadin-6-yl)cyclohex-1-ene-1,2-dicarboxamide] | 1 | 1 | 0 | 1 | 0 | 0 | No damage | No damage | 1 | No damage | 2 | No damage | 1 | – | – | – | – | – | – | –
COc1cc(OC)nc(NC(=O)NS(=O)(=O)c2c(Cl)nc3ccccn23)n1 [Imazosulfuron, 1-(2-chloroimidazo[1,2-a]pyridin-3-ylsulfonyl)-3-(4,6-dimethoxypyrimidin-2-yl)urea] | – | 2 | – | 1 | – | 2 | – | – | – | – | – | – | 1 | 3 | 1 | 2 | 0 | 0 | 1 | 2
